In article PMC12081876, “Identification of PTGR2 inhibitors as a new therapeutic strategy for diabetes and obesity” (EMBO Molecular Medicine, 2025):
“And” between values parts separate entries of the source, which are not always exact repeats. Identical values can stand only once.

How the values were obtained:
[1] = system: HFHSD-fed obese C57BL6/J mice; assay: Fasting glucose in HFHSD-fed mice; assay type: in vivo, mouse; parameters: Fasting glucose, Average / Fasting glucose (individual mouse): unit not given here; conditions: for Fasting glucose, Average / Fasting glucose (individual mouse): Figure 5K; for Fasting glucose, Average: 100 mg/kg/day; for Fasting glucose (individual mouse): BPRPT0245 group
Protocol: Ptgr2^+/+ and Ptgr2^−/− mice were created by the Transgenic Mouse Model Core Facility of the National Core Facility for Biopharmaceuticals, Ministry of Science and Technology, Taiwan and the Animal Resources Laboratory of National Taiwan University Centers of Genomic and Precision Medicine. C57BL6/J mice were purchased from National Laboratory Animal Center. All animal experiments were performed according to institutional ethical guidelines and were approved by the Institutional Animal Care and Use Committee (IACUC) of National Taiwan University Medical College (IACUC No.: 20140456). All mice were housed under standard conditions at 23 °C and 12/12 h. light/dark (7 AM–7 PM) cycle in animal centers of the National Taiwan University Medical College, which is accredited by the Association for Assessment and Accreditation of Laboratory Animal Care International (AAALAC). Mice were provided shelters and sticks weekly. We used adequate anesthetic procedure to reduce pain, suffering and distress according to our animal center regulation. We reported expected or unexpected adverse events to the veterinarian of our animal center. The humane endpoints include 20% weight loss, rough hair coat, hunched posture, lethargy or persistent, or any condition interfering with eating or drinking. Eight-week-old male mice were fed on either a high-fat high-sucrose diet (HFHSD) (cat. no. D12331, Research Diets) or a regular chow diet (cat no. 5001, Lab Diet). BPRPT0245 was dissolved 3% dimethylacetamide and 10% cremophor in water and administered daily to HFHSD-fed obese C57BL6/J mice by oral gavage (100 mg/kg/day).

[2] = system: PPARγ-null 3T3-L1 clones rescued with wild-type mPPARγ; assay: Insulin-stimulated glucose uptake in PPARγ-null 3T3-L1 clones rescued with wild-type mPPARγ; assay type: cell-based, mouse; conditions: for insulin-stimulated glucose uptake, Fig 1P left panel replicates: rescued with wild-type mPPARγ
Protocol: Gene editing was performed in 3T3-L1 preadipocytes using the clustered regularly interspaced short palindromic repeats (CRISPR)/Cas9 system. Two single-guide RNAs (sgRNA) (Appendix Table S5) targeting exon 6 of mouse Pparγ were designed using a web-based design tool (http://crispr.mit.edu/). These oligonucleotides were cloned into the pSurrogate reporter and pAll-Cas9.Ppuro vector obtained from Academia Sinica, Taiwan. The pSurrogate reporter contains an EGFP and an out-of-frame mCherry downstream of the sgRNA; the pAll-Cas9.Ppuro vector expresses Cas9 nuclease and sgRNA. Once a double-strand breaking at the target site in pSurrogate reporter plasmid was created by Cas9, insertions and deletions (indels) could be introduced at the cleaved site. The indels cause frameshifts and result in the expression of the mCherry gene. 3T3-L1 preadipocytes were co-transfected with pSurrogate reporter and pAll-Cas9.Ppuro vectors at 80-90% confluency using PolyJet™ transfection reagent (cat. no. SL100688, SignaGen Laboratories, USA). Two days after transfection, EGFP/mCherry double-positive cells were enriched by fluorescent-activated cell sorting. Single cells were isolated and expanded. The genomic DNA was amplified by PCR and sequenced to confirm the knockout cell lines. The primer sequences are shown in Appendix Table S5.
The mPPARγ C313A DNA sequence was amplified from pCMV6-Pparg C313A and subcloned into the pLVX-IRES-Neo vector with XhoI/NotI restriction sites. The lentiviral expression plasmids, pMD.G, and pCMVΔR8.91 (RNAi Core, Academia Sinica, Taiwan), were co-transfected into HEK293T cells. […] HSP70 was probed with an anti-HSP70 antibody (cat. no. ab45133, Abcam) as a loading control.
Differentiated 3T3-L1 cells were starved with serum-free DMEM containing 0.2% BSA (cat. no. A9647, Sigma-Aldrich). […] Uptake of 2DG was terminated by rapidly removing medium and washing with ice-cold PBS three times. Cells were lysed with 0.1% SDS, and the radioactivity was measured using a liquid scintillation counter. Insulin-mediated glucose uptake was calculated by subtracting insulin-treated glucose uptake with basal glucose uptake.

mPPARγ C313A = biological target: T1, mPPARγ C313A (Mus musculus, UniProt P37238, C313A); assay: PPRE reporter assay in HEK293T cells, C313A mutant mPPARγ; assay type: cell-based, murine; parameters: key to PPRE reporter activity, Fig 1M replicates: luciferase activity normalized to TK reporter signal; conditions: for PPRE reporter activity, Fig 1M replicates: PPARg C313A
T1 construct: host or cells: HEK293T
T1 sequence (P37238 1-505 C313A): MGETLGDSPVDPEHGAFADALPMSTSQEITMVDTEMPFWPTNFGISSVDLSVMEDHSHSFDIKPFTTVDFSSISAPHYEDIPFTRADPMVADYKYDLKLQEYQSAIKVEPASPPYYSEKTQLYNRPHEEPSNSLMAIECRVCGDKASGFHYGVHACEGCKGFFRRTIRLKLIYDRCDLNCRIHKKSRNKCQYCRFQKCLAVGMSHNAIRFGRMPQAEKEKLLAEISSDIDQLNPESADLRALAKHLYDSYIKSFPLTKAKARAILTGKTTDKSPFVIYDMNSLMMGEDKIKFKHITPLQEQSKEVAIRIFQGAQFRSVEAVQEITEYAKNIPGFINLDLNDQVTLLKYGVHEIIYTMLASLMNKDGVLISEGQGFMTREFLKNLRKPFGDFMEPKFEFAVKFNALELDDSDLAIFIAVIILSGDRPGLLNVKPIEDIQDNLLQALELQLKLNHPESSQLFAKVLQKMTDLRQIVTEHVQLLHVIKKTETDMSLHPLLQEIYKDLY
Protocol: For PPRE reporter assay, HEK293T cells were seeded in 24-well plates at 1 × 10^5 cells/well. […] The luciferase activity was measured by Luc-Pair™ Duo-Luciferase HS Assay Kit (cat. no. LF600, Promega, USA) and normalized to the TK reporter signal.

Row | Compound | Fasting glucose, Average ([1]; week 0) | Fasting glucose, Average ([1]; week 2) | Fasting glucose, Average ([1]; week 4) | Fasting glucose, Average ([1]; week 6) | Fasting glucose, Average ([1]; week 8) | Fasting glucose, Average ([1]; week 10) | Fasting glucose, Average ([1]; week 12) | Fasting glucose, Average ([1]; week 14) | Fasting glucose, Average ([1]; week 16) | Fasting glucose, Average ([1]; week 18) | Fasting glucose, Average ([1]; week 20) | Fasting glucose, Average ([1]; week 22) | Fasting glucose, Average ([1]; week 24) | other results
1 | Cc1[nH]c2nc(C(C)N3CCN(c4ccccc4)CC3)nn2c(=O)c1Cc1ccc(F)cc1 (stereo not drawn) [BPRPT0245] | 172.4 | 215 | 172.4 | 168.6 | 182.6 | 183.2 | 184.933 | 181.467 | 186.667 | 173.933 | 159.8 | 158.933 | 164.4 | fasting plasma glucose ([1]; 100 mg/kg/day oral, HFHSD-fed mice, vs vehicle): lowered fasting plasma glucose; Fasting glucose (individual mouse) ([1]; week 0): 140 and 191 and 194 and 229 and 230 and 148 and 190 and 111 and 179; Fasting glucose (individual mouse) ([1]; week 2): 178 and 220 and 216 and 291 and 182 and 199 and 225 and 148; Fasting glucose (individual mouse) ([1]; week 4): 162 and 198 and 190 and 178 and 194 and 163 and 177; Fasting glucose (individual mouse) ([1]; week 6): 151 and 215 and 171 and 164 and 188 and 139 and 181; Fasting glucose (individual mouse) ([1]; week 8): 164 and 212 and 172 and 202 and 171 and 198 and 219; Fasting glucose (individual mouse) ([1]; week 10): 224 and 198 and 153 and 169 and 162 and 150 and 171; Fasting glucose (individual mouse) ([1]; week 12): 187 and 219 and 140 and 175 and 200 and 156 and 161 and 177; Fasting glucose (individual mouse) ([1]; week 14): 220 and 210 and 169 and 202 and 174 and 149 and 142; Fasting glucose (individual mouse) ([1]; week 16): 212 and 199 and 167 and 164 and 191 and 183 and 171; Fasting glucose (individual mouse) ([1]; week 18): 179 and 178 and 134 and 146 and 197 and 201 and 147 and 181 and 202; Fasting glucose (individual mouse) ([1]; week 20): 179 and 154 and 153 and 170 and 174 and 220 and 131 and 171 and 134; Fasting glucose (individual mouse) ([1]; week 22): 195 and 156 and 123 and 149 and 148 and 163 and 132 and 201 and 161; Fasting glucose (individual mouse) ([1]; week 24): 119 and 164 and 166 and 168 and 204 and 174
2 | CCCCCC(=O)CC[C@H]1[C@H](O)CC(=O)[C@@H]1C/C=C\CCCC(=O)O [13,14-dihydro-15-keto-PGE2] |  |  |  |  |  |  |  |  |  |  |  |  |  | insulin-stimulated glucose uptake, Fig 1P left panel replicates ([2]; 1314-dihydro-15kPGE2 5): 0.5765 and 0.8817 and 0.585 and 1.089; PPRE reporter activity, Fig 1M replicates (mPPARγ C313A; 1314dh-15kPGE2 5uM): 1.0835 and 0.6291 and 0.9127; PPRE reporter activity, Fig 1M replicates (mPPARγ C313A; 1314dh-15kPGE2 10uM): 0.8254 and 0.8511 and 0.9733
3 | CCCCCC(=O)/C=C/[C@H]1[C@H](O)CC(=O)[C@@H]1C/C=C\CCCC(=O)O [15-keto-PGE2, 15-keto-prostaglandin E2] |  |  |  |  |  |  |  |  |  |  |  |  |  | insulin-stimulated glucose uptake, Fig 1P left panel replicates ([2]; 15kPGE2 1): 0.8065 and 0.6857 and 0.06677 and 0.8595; insulin-stimulated glucose uptake, Fig 1P left panel replicates ([2]; 15kPGE2 5): 1.281 and 2.22 and 0.9527 and 1.646; insulin-stimulated glucose uptake, Fig 1P left panel replicates ([2]; 15kPGE2 10): 2.206 and 2.06 and 1.8139 and 2.125; insulin-stimulated glucose uptake, PPARγ-null clone rescued with wild-type mPPARγ ([2]; clone #1296): enhanced insulin-stimulated glucose uptake in clone # 1296 when rescued with wild-type mPPARγ; PPRE reporter activity, Fig 1M replicates (mPPARγ C313A; 15kPGE2 1uM): 1.1721 and 1.0341 and 1.1068; PPRE reporter activity, Fig 1M replicates (mPPARγ C313A; 15kPGE2 5uM): 0.9678 and 0.853 and 0.9258; PPRE reporter activity, Fig 1M replicates (mPPARγ C313A; 15kPGE2 10uM): 0.6267 and 0.6796 and 0.8917; PPRE reporter activity, mutant mPPARγ (C313A) (mPPARγ C313A; HEK293T): abolished
4 | Cc1[nH]c2nc(C(C)N3CCN(c4ccccc4)CC3)nn2c(=O)c1Cc1ccc(F)cc1 (stereo not drawn) [BPRPT245] | 172.4 | 215 | 172.4 | 168.6 | 182.6 | 183.2 | 184.933 | 181.467 | 186.667 | 173.933 | 159.8 | 158.933 | 164.4 | 
